# Test results from patent US8871753B2, “Macrocyclic compounds and their use as kinase inhibitors” (Incyte Corporation, priority 2008, dated 2014).
# Structures can show the parent of a compound that is named as a salt. Where two headings read alike, the source gives them in different places.
# Legend:
# [1] = cn_pd bond, 13-membered ring, Pd(OAc)2/Xantphos/Cs2CO3/Et3N, 1,4-dioxane, 160.0 °C, 0.33 h
# [2] = target: T1, human JAK1 (a.a. 837-1142) (Homo sapiens, UniProt P23458); assay: In vitro JAK kinase assay (HTRF, phosphorylation of a biotinylated peptide), JAK1; format: biochemical; settings: read-out: JAK1 IC50
# T1 construct: human JAK1 (a.a. 837-1142); His tag (N); made in house; host or cells: insect cells (baculovirus)
# T1 sequence (P23458 849-1154): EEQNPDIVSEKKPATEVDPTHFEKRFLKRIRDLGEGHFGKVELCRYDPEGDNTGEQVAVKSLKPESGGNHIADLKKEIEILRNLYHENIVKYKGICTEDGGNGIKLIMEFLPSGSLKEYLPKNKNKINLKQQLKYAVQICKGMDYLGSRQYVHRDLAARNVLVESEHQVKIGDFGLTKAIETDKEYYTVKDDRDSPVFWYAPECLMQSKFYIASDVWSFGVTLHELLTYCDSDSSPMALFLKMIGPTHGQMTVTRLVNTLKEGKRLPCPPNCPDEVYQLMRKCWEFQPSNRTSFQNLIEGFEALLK
# Procedure, shortened: (§1)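 Phosphorylation of a biotinylated peptide by the JAK kinase domain, detected by HTRF with Eu-Py20 and SA-APC. ATP was 90 μM for JAK1, 30 μM for JAK2 and 3 μM for JAK3. Reactions ran 1 h at room temperature and were stopped with EDTA, followed by 40 min antibody binding.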
# [3] = target: T2, human JAK2 (a.a. 828-1132) (Homo sapiens, UniProt O60674); assay: In vitro JAK kinase assay (HTRF, phosphorylation of a biotinylated peptide), JAK2; format: biochemical
# T2 construct: JAK2 (a.a. 828-1132); His tag (N); made in house; host or cells: insect cells (baculovirus)
# T2 sequence (O60674 828-1132): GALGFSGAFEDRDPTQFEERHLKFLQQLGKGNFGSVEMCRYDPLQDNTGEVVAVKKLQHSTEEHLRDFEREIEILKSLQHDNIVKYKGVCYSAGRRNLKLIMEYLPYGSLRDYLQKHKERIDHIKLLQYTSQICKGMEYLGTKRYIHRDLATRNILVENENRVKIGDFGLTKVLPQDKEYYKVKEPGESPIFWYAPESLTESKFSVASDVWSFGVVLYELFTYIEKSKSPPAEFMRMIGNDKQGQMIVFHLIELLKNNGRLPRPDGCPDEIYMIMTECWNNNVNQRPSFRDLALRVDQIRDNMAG
# Procedure, shortened: as §1
# [4] = target: T3, human JAK3 (a.a. 781-1124) (Homo sapiens, UniProt P52333); assay: In vitro JAK kinase assay (HTRF, phosphorylation of a biotinylated peptide), JAK3; format: biochemical
# T3 construct: JAK3 (a.a. 781-1124); His tag (N); made in house; host or cells: insect cells (baculovirus)
# T3 sequence (P52333 781-1124): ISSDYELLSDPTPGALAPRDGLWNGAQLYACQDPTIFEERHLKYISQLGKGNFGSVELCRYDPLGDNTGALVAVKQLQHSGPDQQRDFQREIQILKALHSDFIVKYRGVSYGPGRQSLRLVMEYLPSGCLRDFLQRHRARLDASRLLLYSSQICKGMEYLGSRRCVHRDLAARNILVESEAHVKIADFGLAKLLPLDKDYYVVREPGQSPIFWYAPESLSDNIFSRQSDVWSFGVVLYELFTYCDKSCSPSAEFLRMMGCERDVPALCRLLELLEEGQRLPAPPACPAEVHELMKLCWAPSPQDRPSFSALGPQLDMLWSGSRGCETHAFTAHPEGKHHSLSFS
# Procedure, shortened: as §1
# [5] = target: TYK2 (Homo sapiens, UniProt P29597); assay: TYK2 kinase inhibition (Table A1); format: biochemical
# Sequence of TYK2 (P29597 whole entry): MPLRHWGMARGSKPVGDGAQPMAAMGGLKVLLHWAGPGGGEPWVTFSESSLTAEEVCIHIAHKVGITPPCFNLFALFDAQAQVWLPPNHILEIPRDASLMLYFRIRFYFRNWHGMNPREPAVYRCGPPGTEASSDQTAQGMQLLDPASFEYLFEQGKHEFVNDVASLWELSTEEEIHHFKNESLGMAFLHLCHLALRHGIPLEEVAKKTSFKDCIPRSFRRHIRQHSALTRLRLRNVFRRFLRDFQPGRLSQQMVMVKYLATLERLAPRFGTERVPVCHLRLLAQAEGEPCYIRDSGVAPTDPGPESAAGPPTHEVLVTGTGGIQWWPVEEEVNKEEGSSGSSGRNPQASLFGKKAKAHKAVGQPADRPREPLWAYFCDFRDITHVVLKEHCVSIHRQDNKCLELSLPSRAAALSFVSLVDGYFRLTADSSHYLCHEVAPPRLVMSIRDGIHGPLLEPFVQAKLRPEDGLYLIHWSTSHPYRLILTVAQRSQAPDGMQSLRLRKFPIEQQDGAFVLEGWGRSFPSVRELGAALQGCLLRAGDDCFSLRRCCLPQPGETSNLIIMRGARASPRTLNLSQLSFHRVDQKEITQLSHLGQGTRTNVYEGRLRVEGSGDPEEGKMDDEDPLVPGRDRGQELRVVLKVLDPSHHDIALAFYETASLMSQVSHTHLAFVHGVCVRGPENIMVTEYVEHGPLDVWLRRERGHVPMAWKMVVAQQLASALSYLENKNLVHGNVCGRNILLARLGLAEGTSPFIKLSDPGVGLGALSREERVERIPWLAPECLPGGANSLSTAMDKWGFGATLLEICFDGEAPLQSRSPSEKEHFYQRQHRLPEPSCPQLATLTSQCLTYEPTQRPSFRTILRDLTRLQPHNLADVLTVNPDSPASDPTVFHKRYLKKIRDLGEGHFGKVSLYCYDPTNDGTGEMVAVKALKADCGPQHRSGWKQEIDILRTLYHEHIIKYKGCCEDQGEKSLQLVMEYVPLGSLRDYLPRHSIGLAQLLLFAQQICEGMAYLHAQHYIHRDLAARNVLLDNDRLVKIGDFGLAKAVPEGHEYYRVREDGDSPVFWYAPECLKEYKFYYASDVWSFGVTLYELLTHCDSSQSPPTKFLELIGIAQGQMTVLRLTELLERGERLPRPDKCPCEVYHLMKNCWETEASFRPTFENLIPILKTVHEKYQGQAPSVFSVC
# [6] = target: T4, Recombinant Human Anaplastic Lymphoma Kinase (Homo sapiens, UniProt Q9UM73); assay: ALK HTRF kinase assay; format: biochemical; settings: for IC50: Table B1, cells without percent sign
# T4 construct: purchased Invitrogen, Carlsbad, Calif
# T4 sequence (Q9UM73 19-1620): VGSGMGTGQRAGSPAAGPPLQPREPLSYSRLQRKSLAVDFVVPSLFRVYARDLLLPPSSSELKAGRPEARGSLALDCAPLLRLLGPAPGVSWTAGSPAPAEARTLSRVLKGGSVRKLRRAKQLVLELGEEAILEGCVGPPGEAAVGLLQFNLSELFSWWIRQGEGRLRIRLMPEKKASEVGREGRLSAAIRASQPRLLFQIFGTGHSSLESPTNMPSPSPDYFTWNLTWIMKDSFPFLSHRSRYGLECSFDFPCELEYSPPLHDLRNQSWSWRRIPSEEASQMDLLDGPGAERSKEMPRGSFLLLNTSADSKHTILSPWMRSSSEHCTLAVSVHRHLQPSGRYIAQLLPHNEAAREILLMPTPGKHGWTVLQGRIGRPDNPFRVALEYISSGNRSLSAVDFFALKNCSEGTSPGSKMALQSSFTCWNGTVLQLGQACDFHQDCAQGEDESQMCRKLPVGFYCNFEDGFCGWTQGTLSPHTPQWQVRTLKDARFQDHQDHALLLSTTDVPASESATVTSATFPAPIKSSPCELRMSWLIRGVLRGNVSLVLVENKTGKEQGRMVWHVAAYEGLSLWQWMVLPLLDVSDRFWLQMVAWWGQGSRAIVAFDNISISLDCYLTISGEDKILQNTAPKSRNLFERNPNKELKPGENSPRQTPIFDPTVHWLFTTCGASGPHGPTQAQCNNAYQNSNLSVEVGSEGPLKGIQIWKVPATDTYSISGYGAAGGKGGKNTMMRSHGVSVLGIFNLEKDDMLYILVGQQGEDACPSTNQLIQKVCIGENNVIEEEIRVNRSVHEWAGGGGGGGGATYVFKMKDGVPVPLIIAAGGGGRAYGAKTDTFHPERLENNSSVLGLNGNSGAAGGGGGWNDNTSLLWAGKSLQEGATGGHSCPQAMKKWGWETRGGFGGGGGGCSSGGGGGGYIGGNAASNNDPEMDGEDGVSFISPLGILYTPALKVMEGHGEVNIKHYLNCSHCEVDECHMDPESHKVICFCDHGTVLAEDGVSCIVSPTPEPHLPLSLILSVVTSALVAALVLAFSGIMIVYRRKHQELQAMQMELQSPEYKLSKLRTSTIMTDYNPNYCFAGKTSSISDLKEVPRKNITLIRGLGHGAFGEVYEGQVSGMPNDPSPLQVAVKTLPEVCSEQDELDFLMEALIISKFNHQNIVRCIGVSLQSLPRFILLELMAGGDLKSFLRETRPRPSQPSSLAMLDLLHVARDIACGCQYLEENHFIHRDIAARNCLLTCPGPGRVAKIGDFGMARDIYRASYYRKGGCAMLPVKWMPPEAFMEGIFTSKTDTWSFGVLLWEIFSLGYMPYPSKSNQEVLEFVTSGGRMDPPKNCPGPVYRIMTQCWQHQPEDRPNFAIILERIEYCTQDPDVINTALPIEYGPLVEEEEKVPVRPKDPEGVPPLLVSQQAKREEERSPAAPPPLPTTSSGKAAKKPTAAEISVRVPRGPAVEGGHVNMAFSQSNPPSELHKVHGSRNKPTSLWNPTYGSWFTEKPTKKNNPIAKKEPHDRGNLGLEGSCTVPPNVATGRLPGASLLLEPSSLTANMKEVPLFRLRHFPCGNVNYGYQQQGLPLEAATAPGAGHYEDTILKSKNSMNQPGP
# Procedure, shortened: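 Readout was HTRF between a Eu-W1024 anti-phosphotyrosine antibody and streptavidin-APC bound to biotinylated peptide phosphorylated by recombinant human ALK. IC50 values came from a four-parameter logistic fit.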
# [7] = compound at a concentration of 500 nM or 1 mM (not specified), cells shown as percentage
# [8] = method AA1 (90 μM ATP) or AA2 (1000 μM ATP), not stated per value
# [9] = method AA1 (30 μM ATP) or AA2 (1000 μM ATP), not stated per value
# [10] = method AA1 (3 μM ATP) or AA2 (1000 μM ATP), not stated per value
# [11] = compound at 500 nM or 1 mM, 90 μM ATP
IC50 [5] [nM],IC50 ([2]; Table B1) [nM],IC50 ([3]; Table B1) [nM],IC50 ([4]; Table B1) [nM],IC50 ([5]; Table B1) [nM],"IC50 [2, 8] [nM]","IC50 [3, 9] [nM]","IC50 [4, 10] [nM]","ALK % of inhibition at a concentration of 500 nM or 1 mM [6, 11] [%]",Structure (SMILES),other results
,,,,,,,,,Nc1ccc2cc1CCc1cncc(c1)Nc1ncc(F)c(n1)N2,"ring closure, yield after HPLC ([1]; from Nc1cncc(CCc2cc(Nc3nc(Cl)ncc3F)ccc2N)c1, 158.0 mM): 8%"
80,,,,,,,,,"Cc1cnc2nc1Nc1ccc(N)c(c1)CCc1cncc(c1)N2 [Example C50, 6-Methyl-2,4,8,18,22-pentaazatetracyclo[14.3.1.1(3,7).1(9,13)]docosa-1(20),3(22),4,6,9(21),10,12,16,18-nonaen-12-amine tris(trifluoroacetate)]","ring closure, yield after HPLC ([1]; from Cc1cnc(Cl)nc1Nc1ccc(N)c(CCc2cncc(N)c2)c1, 135.0 mM): 50%; IC50 [2]: 33 nM; IC50 [3]: 111 nM; IC50 [4]: > 400 nM"
,117,1630,> 10000,3830,,,,,"Cc1ncoc1C(=O)N1CC[C@H](NC(=O)Nc2ccc3cc2CCc2cncc(c2)Nc2ncc(Cl)c(n2)N3)C1 [Example B273, N-[6-Chloro-2,4,8,18,22-pentaazatetracyclo[14.3.1.1(3,7).1(9,13)]docosa-1(20),3(22),4,6,9(21),10,12,16,18-nonaen-12-yl]-N′-{(3S)-1-[(4-methyl-1,3-oxazol-5-yl)carbonyl]pyrrolidin-3-yl}urea bis(trifluoroacetate)]","ALK % of inhibition at a concentration of 500 nM or 1 mM [6, 7]: 3.2%"
3.4,,,,,2.9,1.1,4.8,79,"NC(=O)COc1ccc2cc1CCc1cccc(c1)Nc1ncc(Cl)c(n1)N2 [Example A15, 2-{[6-Chloro-2,4,8,22-tetraazatetracyclo[14.3.1.1(3,7).1(9,13)]docosa-1(20),3(22),4,6,9(21),10,12,16,18-nonaen-12-yl]oxy}acetamide trifluoroacetate]",
,235,112,450,312,,,,,"O=C(c1cc2cc(c1)Nc1nc(ncc1Cl)Nc1cccc(c1)CC2)N1CCCC(O)C1 (stereo not drawn) [Example B12, 1-{[6-Chloro-2,4,8,22-tetraazatetracyclo[14.3.1.1(3,7).1(9,13)]docosa-1(20), 3(22),4,6,9(21),10,12,16,18-nonaen-11-yl]carbonyl}piperidin-3-ol trifluoroacetate]",IC50 [6]: > 10000 nM
,4,5.5,65,16,,,,,"O=C(Nc1ccc2cc1CCc1cccc(c1)Nc1ncc(Cl)c(n1)N2)N[C@H]1CCN(C(=O)c2nccs2)C1 [Example B231, N-[6-Chloro-2,4,8,22-tetraazatetracyclo[14.3.1.1(3,7).1(9,13)]docosa-1(20),3(22),4,6,9(21),10,12,16,18-nonaen-12-yl]-N′-[(3S)-1-(1,3-thiazol-2-ylcarbonyl)pyrrolidin-3-yl]urea trifluoroacetate]","ALK % of inhibition at a concentration of 500 nM or 1 mM [6, 7]: 8.1%"
> 200,,,,,30,> 200,> 200,39,"COc1ccc(S(=O)(=O)N2CCC(CC(=O)Nc3ccc4cc3CCc3cncc(c3)Nc3ncc(Cl)c(n3)N4)CC2)cc1 [Example A197, N-[6-Chloro-2,4,8,18,22-pentaazatetracyclo[14.3.1.1(3,7).1(9,13)]docosa-1(20),3(22),4,6,9(21),10,12,16,18-nonaen-12-yl]-2-{1-[(4-methoxyphenyl)sulfonyl]piperidin-4-yl}acetamide bis(trifluoroacetate)]",
,3.9,4.6,33,13,,,,,"O=C(Nc1ccc2cc1CCc1cccc(c1)Nc1ncc(Cl)c(n1)N2)Nc1cccc2ccccc12 [Example B124, N-[6-Chloro-2,4,8,22-tetraazatetracyclo[14.3.1.1(3,7).1(9,13)]docosa-1(20),3(22),4,6,9(21),10,12,16,18-nonaen-12-yl]-N′-1-naphthylurea trifluoroacetate]","ALK % of inhibition at a concentration of 500 nM or 1 mM [6, 7]: 17%"
22,,,,,29,11,16,41,"O=C(Nc1ccc2cc1CCc1cccc(c1)Nc1ncc(Cl)c(n1)N2)C1CCN(C(=O)NC2CCCC2)CC1 [Example A61, N(4)-[6-Chloro-2,4,8,22-tetraazatetracyclo[14.3.1.1(3,7).1(9,13)]docosa-1(20),3(22),4,6,9(21),10,12,16,18-nonaen-12-yl]-N(1)-cyclopentylpiperidine-1,4-dicarboxamide trifluoroacetate]",
4.9,,,,,4.9,5.4,68,30,"CCC(=O)N1CCC(CC(=O)Nc2ccc3cc2CCc2cccc(c2)Nc2ncc(Cl)c(n2)N3)CC1 [Example A90, N-[6-Chloro-2,4,8,22-tetraazatetracyclo[14.3.1.1(3,7).1(9,13)]docosa-1(20), 3(22),4,6,9(21),10,12,16,18-nonaen-12-yl]-2-(1-propionylpiperidin-4-yl)acetamide trifluoroacetate]",
,1.8,1.9,4.8,2.7,,,,,"O=C(Nc1ccc2cc1CCc1cccc(c1)Nc1ncc(Cl)c(n1)N2)c1ccsc1 [Example B62, N-[6-Chloro-2,4,8,22-tetraazatetracyclo[14.3.1.1(3,7).1(9,13)]docosa-1(20), 3(22),4,6,9(21),10,12,16,18-nonaen-12-yl]thiophene-3-carboxamide trifluoroacetate]",IC50 [6]: 210 nM
,0.24,0.1,2.3,0.76,,,,,"O=S(=O)(Nc1ccc2cc1CCc1cccc(c1)Nc1ncc(Cl)c(n1)N2)c1ccccc1 [Example B136, N-[6-Chloro-2,4,8,22-tetraazatetracyclo[14.3.1.1(3,7).1(9,13)]docosa-1(20), 3(22),4,6,9(21),10,12,16,18-nonaen-12-yl]benzenesulfonamide trifluoroacetate]",IC50 [6]: 240 nM
> 200,,,,,67,> 200,> 200,25,"N#Cc1cccc(C(=O)N2CCC(CC(=O)Nc3ccc4cc3CCc3cncc(c3)Nc3ncc(Cl)c(n3)N4)CC2)c1 [Example A191, N-[6-Chloro-2,4,8,18,22-pentaazatetracyclo[14.3.1.1(3,7).1(9,13)]docosa-1(20),3(22),4,6,9(21),10,12,16,18-nonaen-12-yl]-2-[1-(3-cyanobenzoyl)piperidin-4-yl]acetamide bis(trifluoroacetate)]",
> 200,,,,,13,> 200,> 200,13,"O=C(CC1CCN(c2cccc(Cl)n2)CC1)Nc1ccc2cc1CCc1cncc(c1)Nc1ncc(Cl)c(n1)N2 [Example A180, N-[6-Chloro-2,4,8,18,22-pentaazatetracyclo[14.3.1.1(3,7).1(9,13)]docosa-1(20),3(22),4,6,9(21),10,12,16,18-nonaen-12-yl]-2-[1-(6-chloropyridin-2-yl)piperidin-4-yl]acetamide tris(trifluoroacetate)]",
,2.4,2.4,5.1,5.3,,,,,"O=C(Nc1ccc2cc1CCc1cccc(c1)Nc1ncc(Cl)c(n1)N2)c1ccoc1 [Example B59, N-[6-Chloro-2,4,8,22-tetraazatetracyclo[14.3.1.1(3,7).1(9,13)]docosa-1(20), 3(22),4,6,9(21),10,12,16,18-nonaen-12-yl]-3-furamide trifluoroacetate]",IC50 [6]: 700 nM
,15,150,1400,2300,,,,,"NC1CCN(c2ccnc(Nc3ccc4cc3CCc3cccc(c3)Nc3ncc(Cl)c(n3)N4)n2)CC1 [Example B281, N-[4-(4-Aminopiperidin-1-yl)pyrimidin-2-yl]-6-chloro-2,4,8,22-tetraazatetracyclo[14.3.1.1(3,7).1(9,13)]docosa-1(20),3(22),4,6,9(21),10,12,16,18-nonaen-12-amine tris(trifluoroacetate)]","ALK % of inhibition at a concentration of 500 nM or 1 mM [6, 7]: 24%"
,0.62,2.3,16,6.8,,,,,"CSc1ccccc1NC(=O)Nc1ccc2cc1CCc1cccc(c1)Nc1ncc(Cl)c(n1)N2 [Example B107, N-[6-Chloro-2,4,8,22-tetraazatetracyclo[14.3.1.1(3,7).1(9,13)]docosa-1(20), 3(22),4,6,9(21),10,12,16,18-nonaen-12-yl]-N′-[2-(methylthio)phenyl]urea trifluoroacetate]","ALK % of inhibition at a concentration of 500 nM or 1 mM [6, 7]: 9.3%"
